The values that follow come from patent publication US20220354849A1, “COMPOSITION FOR PREVENTING OR TREATING METABOLIC LIVER DISEASE” (STANDIGM INC., priority 2019, published 2022).

Several values for one entry are separate records, joined by “and”; a condition that tells them apart may be missing. Equal values may be shown once.

Assay [1] concerns NASH model mice. In words: NASH model mice (STZ + high-fat diet), oral trametinib study: liver histology, NAFLD activity score, fibrosis area, liver weight. It is filed as in vivo, mouse (C57BL/6). The arrangement: fibrosis area score (sirius red-positive area): unit not given here. The conditions noted are these: for fibrosis area score (sirius red-positive area) / NAFLD activity score (NAS): telmisartan 10 mg/kg p.o., once daily 6 to 9 weeks of age; for fibrosis area score (sirius red-positive area): vehicle 0.69±0.13; for NAFLD activity score (NAS): vehicle 4.29±0.49. The source says:
(§1) Pathogen-free C57BL/6 mice on the 14th day of pregnancy were obtained from Japan SLC, Inc. (Japan).
(§2) NASH was established in male mice by a single subcutaneous injection of […] streptozotocin (STZ, Sigma, USA) 2 days after birth and feeding with a high-fat diet (CLEA Japan Inc., Japan) ad libitum after 4 weeks of age (day 28±2).
In order to determine a safe oral administration dose of trametinib, as in Example 2, the NASH mice in Example 1 were randomly divided into 3 groups of 7 or 8 mice.Thereafter, the mice of 3 groups were orally administered with the following compounds at about […].
Group 1 (vehicle administration group:negative control group): 7 NASH mice were orally administered with a vehicle (1% DMSO in saline) in a volume of 10 mL/kg once daily from 6 weeks to 9 weeks of age.
Group 2 (telmisartan administration group:positive control group): 8 NASH mice were orally administered with purified water supplemented with telmisartan at a dose of 10 mg/kg (in a volume of 10 mL/kg) once daily from 6 weeks to 9 weeks of age.
Group 3 (trametinib administration group:experimental group): 8 NASH mice were orally administered with a vehicle supplemented with trametinib at a dose of 0.2 mg/kg (in a volume of 10 mL/kg) once daily from 6 weeks to 9 weeks of age.
(§3) The body weight of each mouse was measured daily during the administration period, and the survival rate, clinical symptoms, and behaviors of each mouse were monitored daily.
For histological analysis of liver tissue, mice in Groups 1 to 3 of Example 5 were sacrificed at 9 weeks of age, and then H&E staining, NAFLD activity score measurement, and sirius red staining were performed according to the method of Example 3.
The NAFLD activity score for liver tissue was estimated according to the method of Example 3-2.
According to the method of Example 3-4, a percentage of a fibrosis area due to inflammation and a value of a sirius red-positive area were each estimated through sirius red staining.
Statistical analysis of the data of the Examples above was performed using the Bonferroni Multiple Comparison Test. p<0.05 was regarded as statistically significant.

Assay [2] relates to NASH model mice. In words: NASH model mice (STZ + high-fat diet), intraperitoneal trametinib study: liver histology, NAFLD activity score, fibrosis area, liver weight. The assay is classed as in vivo, mouse (C57BL/6). The arrangement: key to NAFLD activity score (NAS): NAS: sum of steatosis, inflammation, ballooning scores (Kleiner criteria); key to steatosis score / ballooning score: severity score per Kleiner's criteria on H&E sections; fibrosis area score (sirius red-positive area): unit not given here. The conditions noted are these: for fibrosis area score (sirius red-positive area) / NAFLD activity score (NAS): telmisartan 10 mg/kg p.o., once daily 6 to 9 weeks of age; for fibrosis area score (sirius red-positive area): vehicle 0.89±0.19; for NAFLD activity score (NAS): vehicle 4.38±0.52.
Description: as §1, §2
On the day before the start of administration based on the body weight of mice, the NASH mice at 6 weeks of age (day 42±2) prepared in Example 1 were randomly divided into 3 groups of 8 mice.
The present inventors selected trametinib as a substance expected to have a therapeutic effect on non-alcoholic steatohepatitis through a screening method using artificial intelligence (AI) deep learning technology. In order to identify whether the substance has an effect on non-alcoholic steatohepatitis, the 3 groups of mice were each intraperitoneally or orally administered with the following compounds at an amount of about […]. As the negative control group of trametinib in the present invention, the vehicle administration group was treated with a solvent of the same amount used for compound dissolution. Telmisartan (Boehringer Ingelheim GmbH, Germany) was used in the positive control group. The telmisartan is a compound which has anti-NASH, anti-fibrosis, and anti-inflammatory effects in NASH and in a liver disease animal model related to NASH.
Group 1 (vehicle administration group: negative control group): 8 NASH mice were intraperitoneally administered with a vehicle (4% DMSO in saline) in a volume of 5 mL/kg once daily from 6 weeks to 9 weeks of age.
Group 2 (telmisartan administration group: positive control group): 8 NASH mice were orally administered with purified water supplemented with telmisartan at a dose of 10 mg/kg once daily from 6 weeks to 9 weeks of age.
Group 3 (trametinib administration group: experimental group): 8 NASH mice were intraperitoneally administered with a vehicle supplemented with trametinib at a dose of 2 mg/kg once daily from 6 weeks to 9 weeks of age.
as §3
For histological analysis of liver tissue, mice in Groups 1 to 3 were sacrificed at 9 weeks of age, and the liver was excised therefrom.
For H&E staining, after sectioning liver tissue, a liver tissue slide fixed with paraffin was immersed in a xylene solution for 3 minutes to remove the paraffin. Thereafter, in order to remove the xylene, the liver tissue slide was immersed in 100% ethanol for 3 minutes and then hydrated with distilled water. Subsequently, the liver tissue slide was immersed in a hematoxylin solution for 5 to 10 minutes and then hydrated with distilled water for 5 minutes, followed by quickly immersing it twice in a 1% HCl solution, and then hydrating with distilled water. Then, the liver tissue slide was immersed in a 1% ammonia solution for 2 minutes to stain the tissue blue. Thereafter, the liver tissue stained blue was immersed in an eosin solution for 2 minutes, followed by immersing the resultant in ethanol for about 3 to 5 minutes. Lastly, the liver tissue was immersed in a xylene solution, whereupon the thus-stained liver fragment was observed under a microscope.
The NAFLD activity score (NAS) is a combined value obtained by considering each condition of steatosis, inflammation, and ballooning, which are observed in a liver section stained with H&E. The NAFLD score was calculated according to Kleiner's criteria (Kleiner DE et al., 2005).
Steatosis, inflammation, and ballooning scores were determined according to severity of symptoms based on observation in H&E-stained liver sections.
For sirius red staining, a sirius red reagent was maintained in an equilibrium state and stirred gently. […]

Setting [3] is: trametinib 0.2 mg/kg p.o. once daily, 6 to 9 weeks of age.
Where [4] appears, read: trametinib 2 mg/kg i.p. once daily, 6 to 9 weeks of age.

On to `CC(=O)Nc1cccc(-n2c(=O)n(C3CC3)c(=O)c3c(Nc4ccc(I)cc4F)n(C)c(=O)c(C)c32)c1` [trametinib, N—(3—{3—cyclopropyl—5-[(2-fluoro-4-iodophenyl)amino]-6,8-dimethyl-2,4,7-trioxo-3 ,4,6,7-tetrahydropyrido [4,3-d]pyrimidin-1(2H)-yl}phenyl)acetamide], for which the “pathological conditions (sirius red staining) compared to vehicle administration group” value in the assay on NASH model mice [1] (setting [3]) is reported as “improved”. The “pathological conditions of liver tissue (H&E staining) compared to vehicle administration group” value with NASH model mice [1] (setting [3]) and with NASH model mice [2] (setting [4]) was “improved” throughout. In addition, the steatosis score is 0.38±0.52 and 0.4 in the assay with NASH model mice [1] (trametinib 0.2 mg/kg p.o. once daily, 6 to 9 weeks of age, mean ± standard deviation, vehicle 0.86±0.38); 0 in the assay on NASH model mice [2] (trametinib 2 mg/kg i.p. once daily from 6 to 9 weeks of age, H&E liver sections, vehicle average 0.8). In addition, the inflammation score with NASH model mice [1] (trametinib 0.2 mg/kg p.o. once daily, 6 to 9 weeks of age, vehicle 2.71±0.49) was 1.75±0.71 and 1.8. The liver-to-body weight ratio is given as 7.4±0.8% in the assay on NASH model mice [1] (trametinib 0.2 mg/kg p.o. once daily, 6 to 9 weeks of age, vehicle 8.7±0.8%) and 5.3±0.96% in the assay with NASH model mice [2] (trametinib 2 mg/kg i.p. once daily, 6 to 9 weeks of age, vehicle 7.0±0.8%). Also, the average liver weight came out at 1466 ± 169 mg with NASH model mice [1] (trametinib 0.2 mg/kg p.o. once daily, 6 to 9 weeks of age, vehicle 1776±189 mg) and 873 ± 218 mg in the assay on NASH model mice [2] (trametinib 2 mg/kg i.p. once daily, 6 to 9 weeks of age, vehicle 1444±106 mg). For the same compound, the “number of subjects with a steatosis score of 1” value in the assay on NASH model mice [1] (trametinib 0.2 mg/kg p.o. once daily, 8 mice, vehicle 6 subjects) amounted to 3. Besides, the “fibrosis area score (sirius red-positive area)” value was 0.34±0.15 and 0.3 with NASH model mice [1] (trametinib 0.2 mg/kg p.o.); 0.50±0.13 and 0.5 with NASH model mice [2] (trametinib 2 mg/kg i.p.). Further, the “NAFLD activity score (NAS)” value worked out at 2.88±1.13 in the assay on NASH model mice [1] (trametinib 0.2 mg/kg p.o.) and 2.63±0.52 with NASH model mice [2] (trametinib 2 mg/kg i.p.). The “percentage of fibrosis area compared to vehicle administration group” value is given as “reduced” in the assay on NASH model mice [1] (trametinib 0.2 mg/kg p.o., sirius red staining) and “remarkable decrease” with NASH model mice [2] (trametinib 2 mg/kg i.p., sirius red staining, p<0.0001). Further, the “fibrosis (sirius red staining) compared to vehicle administration group” value in the assay on NASH model mice [2] (setting [4]) is given as “alleviated”. Moreover, the “reduction of average liver weight compared to vehicle administration group” value with NASH model mice [2] (setting [4]) is listed as 40%. Moreover, the “subjects with a ballooning score of 0, share of total number of subjects” value in the assay on NASH model mice [2] (setting [4]) is 100%. Also, the “number of subjects with a ballooning score of 0” value with NASH model mice [2] (trametinib 2 mg/kg i.p. once daily, 6 to 9 weeks of age, 8 mice) was “eight”. In the assay on NASH model mice [2] (trametinib 2 mg/kg i.p. once daily, 6 to 9 weeks of age, all subjects), the ballooning score is given as 0.

In the case of `CCCc1nc2c(C)cc(-c3nc4ccccc4n3C)cc2n1Cc1ccc(-c2ccccc2C(=O)O)cc1` [telmisartan], the “fibrosis area score (sirius red-positive area)” value with NASH model mice [1] (trametinib 0.2 mg/kg p.o.) was 0.44±0.06 and 0.4; in the assay with NASH model mice [2] (trametinib 2 mg/kg i.p.) it was 0.40±0.15 and 0.4. For the same compound, the results for the “NAFLD activity score (NAS)” value in the assay on NASH model mice [1] (trametinib 0.2 mg/kg p.o.) and in the assay with NASH model mice [2] (trametinib 2 mg/kg i.p.) were 2.25±0.46 and 2.75±0.46, respectively. Moreover, the “number of subjects with a steatosis score of 1” value in the assay on NASH model mice [2] (telmisartan 10 mg/kg p.o. once daily, 6 to 9 weeks of age, 8 mice, vehicle 6 subjects) is reported as 1.
